The target of one data set is T1, P-glycoprotein (Homo sapiens, UniProt P08183).
T1 construct: endogenous in cells; host or cells: human subjects in vivo (clinical study)
Conditions: repeated dosing of zanubrutinib; cited from earlier work.

Data set [1] in a line: Phase 1 DDI study: single-dose zanubrutinib PK alone and with steady-state rifabutin (NCT04470908). The class given is in vivo, human. Conditions: for half-life: arithmetic mean (SD). From the text:
This study was designed, conducted, and monitored according to sponsor procedures, and complied with the ethical principles of Good Clinical Practice, International Council for Harmonisation of Technical Requirements for Pharmaceuticals for Human Use, the Declaration of Helsinki, and local regulatory requirements. All volunteers provided written, informed consent before study entry. Midlands Independent Review Board (MLIRB (now WCG IRB), Overland Park, Kansas) reviewed and approved the protocol at the respective study center.
Volunteers were screened for eligibility during the screening period (from day −28 through day −2). Those who met all the inclusion criteria and none of the exclusion criteria were admitted into the clinical research unit (CRU) on day −1 and confined to the CRU until discharge on day 13. […] Volunteers were discharged on day 13 after satisfactory completion of study-related procedures.
A single dose of rifabutin (300 mg) was given orally as 2×150 mg capsules with food on days 3-10 and in the fasted state on day 11.
Noncompartmental analysis was conducted using Phoenix® WinNonlin™ version 8.1 (Certara USA, Inc., Princeton, New Jersey, USA).
Protein precipitation was utilized to extract the analyte and internal standard from human plasma containing dipotassium ethylenediaminetetraacetic acid (K2EDTA) as an anticoagulant.
The geometric least squares mean (GLSM) and their ratios were obtained by taking the exponential of the corresponding estimates of LSM and their differences on the natural logarithm scale, where ratio=test/reference. Within-subject CV was calculated as 100×square root[exp(mean square error from the analysis model)−1].

A further data set has as its system panel of 370 kinases. The experiment in a line: Kinome profiling at 100xIC50 (BTK) concentrations. Conditions: 100×IC50 (BTK) concentration. The class given is biochemical.
Where [2] appears, read: 320 mg zanubrutinib + 300 mg rifabutin (test).
Where [3] appears, read: 320 mg zanubrutinib + 300 mg rifabutin, median (min-max).

The structures appear in SMILES notation. Where two headings read alike, the source gives them in different places.

T1 sequence (P08183 whole entry): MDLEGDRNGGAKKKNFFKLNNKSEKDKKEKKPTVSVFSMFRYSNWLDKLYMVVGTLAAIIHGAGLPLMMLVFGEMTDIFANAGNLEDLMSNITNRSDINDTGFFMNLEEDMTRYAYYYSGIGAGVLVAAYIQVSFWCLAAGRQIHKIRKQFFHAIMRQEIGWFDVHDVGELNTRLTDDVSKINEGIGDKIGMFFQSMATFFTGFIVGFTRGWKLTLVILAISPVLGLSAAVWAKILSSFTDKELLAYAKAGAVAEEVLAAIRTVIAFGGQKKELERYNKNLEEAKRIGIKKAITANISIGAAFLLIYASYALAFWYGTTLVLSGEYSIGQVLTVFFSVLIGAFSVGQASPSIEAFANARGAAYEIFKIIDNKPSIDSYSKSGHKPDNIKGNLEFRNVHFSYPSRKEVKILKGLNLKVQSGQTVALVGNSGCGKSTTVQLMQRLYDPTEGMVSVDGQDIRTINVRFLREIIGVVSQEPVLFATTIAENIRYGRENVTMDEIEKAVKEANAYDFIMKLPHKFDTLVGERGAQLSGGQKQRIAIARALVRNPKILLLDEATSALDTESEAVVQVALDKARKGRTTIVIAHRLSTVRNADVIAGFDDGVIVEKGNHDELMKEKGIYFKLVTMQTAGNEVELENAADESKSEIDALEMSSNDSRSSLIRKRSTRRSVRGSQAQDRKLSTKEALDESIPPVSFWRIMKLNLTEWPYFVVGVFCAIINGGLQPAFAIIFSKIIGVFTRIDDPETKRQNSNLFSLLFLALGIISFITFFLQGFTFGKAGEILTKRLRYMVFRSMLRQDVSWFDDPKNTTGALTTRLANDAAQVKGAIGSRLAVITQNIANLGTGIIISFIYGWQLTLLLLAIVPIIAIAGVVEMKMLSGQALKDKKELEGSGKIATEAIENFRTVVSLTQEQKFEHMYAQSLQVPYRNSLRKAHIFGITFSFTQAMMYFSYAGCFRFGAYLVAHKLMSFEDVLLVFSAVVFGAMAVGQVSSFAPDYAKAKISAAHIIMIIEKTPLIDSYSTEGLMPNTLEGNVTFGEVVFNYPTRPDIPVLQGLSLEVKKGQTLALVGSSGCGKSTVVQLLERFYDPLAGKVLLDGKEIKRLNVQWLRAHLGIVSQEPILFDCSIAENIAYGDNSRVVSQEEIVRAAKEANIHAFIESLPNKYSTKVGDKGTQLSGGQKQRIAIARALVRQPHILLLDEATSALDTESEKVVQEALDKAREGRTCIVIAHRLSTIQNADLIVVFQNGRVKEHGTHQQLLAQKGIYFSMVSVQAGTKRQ

Broadly, the Tmax is the time at which the peak concentration occurs. By AUC(0-t) is commonly meant exposure summed from dosing to a finite time, without extrapolation to infinity. Low values mean less exposure, high ones more exposure. For orientation: Cmax means the highest concentration seen after dosing. A word on the Vd/F: it is the volume of distribution divided by bioavailability. As a reminder, the half-life is the time needed for the level to fall by half in the phase considered. For `C=CC(=O)N1CCC([C@@H]2CCNc3c(C(N)=O)c(-c4ccc(Oc5ccccc5)cc4)nn32)CC1` [zanubrutinib, (S)-7-(1-acryloylpiperidin-4-yl)-2-(4-phenoxyphenyl)-4,5,6,7-tetrahydropyrazolo[1,5-a]pyrimidine-3-carboxamide], at P-glycoprotein, the “Mean increase of digoxin AUC0-t” value is 11% and the “Mean increase of digoxin Cmax” value is reported as 34%. In addition, the “AUC0-t GLSM” value in data set [1] (320 mg zanubrutinib (reference)) came out at 2700 ng·h/mL. Moreover, in data set [1] (setting [2]), the “AUC0-t GLSM” value came to 1530 ng·h/mL and the “Cmax GLSM” value was determined as 253 ng/mL. In data set [1] (setting [3]), the Tlast was 36.0 (24.0-36.0) [13] h and the Tmax worked out at 2.0 h. In data set [1] (320 mg zanubrutinib alone, median (min-max)), the Tlast is 36.0 (24.0-36.0) [13] h. In data set [1] (human, plasma, oral, 320 mg), this molecule returned an AUC(0-t) of 2700 ng·h/mL, a Cmax of 489 ng/mL and a Vd/F of 1080 L. Moreover, in data set [1] (human, plasma, oral, 320 mg zanubrutinib + 300 mg rifabutin (test), read-out: AUC0-∞ GLSM), the AUC(0-inf) is 1560 ng·h/mL. For the same molecule, the half-life in data set [1] (human, plasma, oral, 320 mg zanubrutinib + 300 mg rifabutin) was 7 h. Besides, in data set [1] (human, plasma, oral, 320 mg zanubrutinib + 300 mg rifabutin, geometric mean (CV), read-out: AUC0-∞), the AUC(0-inf) is 1590 ng·h/mL. Further, the AUC(0-inf) in data set [1] (human, plasma, oral, 320 mg, 320 mg zanubrutinib (reference), read-out: AUC0-∞ GLSM) worked out at 2780 ng·h/mL. Moreover, the half-life in data set [1] (human, plasma, oral, 320 mg, 320 mg zanubrutinib alone) is 7.2 h. In data set [1] (human, plasma, oral, 320 mg, 320 mg zanubrutinib alone, geometric mean (CV), read-out: AUC0-∞), the AUC(0-inf) was determined as 2780 ng·h/mL. In addition, the Tmax in data set [1] (human, plasma, oral, 320 mg, read-out: Tmax) amounted to 1.5 h. In addition, in data set [1] (in vivo), the “AUC0-t within-subject CV” value stood at 10.7%, the “AUC0-∞ within-subject CV” value is on record as 7.0% and the “Cmax within-subject CV” value is 23.2%. In addition, the “Reduction in zanubrutinib exposure” value in data set [1] (with moderate CYP3A inducer, e.g. rifabutin) was “approximately 2 fold”. The “GMR (exposure)” value in data set [1] (with vs without rifabutin) is 57%. Moreover, the Off-target kinases inhibited entry in the data set with panel of 370 kinases is listed as “seven”.

The values are drawn from patent US11911386B2, “Methods of treating B-cell proliferative disorder” (BeiGene Switzerland GmbH, priority 2022, dated 2024).
